Where a SMILES comes first, the peptide text is derived from it. [ ]: non-standard residue; d: D form. ξ: configuration not given here. NMeTyr(3-tBu) = CN[C@@H](Cc1ccc(O)c(C(C)(C)C)c1)C(=O)O; ξNMeTyr(3-tBu) = CNC(Cc1ccc(O)c(C(C)(C)C)c1)C(=O)O; Tyr(3-tBu) = CC(C)(C)c1cc(C[C@H](N)C(=O)O)ccc1O; NMePhe(4-F) = CN[C@@H](Cc1ccc(F)cc1)C(=O)O; Phe(4-Cl) = N[C@@H](Cc1ccc(Cl)cc1)C(=O)O; Phe(4-F) = N[C@@H](Cc1ccc(F)cc1)C(=O)O; ξPhe(4-CN) = N#Cc1ccc(CC(N)C(=O)O)cc1; NMeGly(cPr) = CN[C@H](C(=O)O)C1CC1; NMeIle(3ξ) = CCC(C)[C@H](NC)C(=O)O; NMeChg = CN[C@H](C(=O)O)C1CCCCC1; NMePhg = CN[C@H](C(=O)O)c1ccccc1; NMeNva = CCC[C@H](NC)C(=O)O; NMeV = CN[C@H](C(=O)O)C(C)C
Tests used:
[1] = test system: specimen of longitudinal muscle in the duodenum extracted from a rabbit (motilin-induced contraction); experiment: Action on the motilin-induced contraction of a specimen of longitudinal muscle in the duodenum extracted from a rabbit; conditions: Oryctolagus cuniculus, organ bath, Krebs solution 28° C., read-out: Contraction suppressing test, pA2 (converted)
Method: Action on the Contraction of a Specimen of Longitudinal Muscle in the Duodenum Extracted from a Rabbit
The action on the motilin-induced contraction of a specimen of longitudinal muscle in the duodenum extracted from a rabbit was investigated by the following method. A duodenum specimen (5×15 mm) extracted from a slaughtered rabbit was suspended in an organ bath (10 ml) such that the longitudinal muscle would run vertically; the bath was filled with a Krebs solution kept at 28° C. A mixed gas (95% O2 and 5% CO2) was continuously bubbled into the Krebs solution and the contraction of the duodenum specimen was recorded isotonically (with a 1-g load) via an isotonic transducer (ME-3407, ME Commercial, Tokyo, Japan). The degree of contraction was expressed in relative values, with the contraction by acetylcholine at a dose of 10^−4 M being taken as 100%. The activity of the compound was calculated as pA2 value indicating its effect on the dose-dependent muscle contraction by the motilin put into the organ bath.

motilin receptor = target: T1, motilin receptor (Oryctolagus cuniculus, UniProt G1T803); experiment: Motilin receptor binding test (125I motilin, rabbit duodenum protein sample); conditions: 125I motilin 25 pM, concentration reducing specific binding by 50%
T1 construct: homogenized in 50 mM Tris buffer to prepare a protein sample; from tissue; host or cells: rabbit duodenum homogenate (mucous membrane separated)
Method: Motilin receptor binding test
A motilin receptor binding test was conducted in the following manner [Vantrappen et al., Regul. Peptides, 15, 143 (1986)]. The duodenum was extracted from a slaughtered rabbit, had the mucous membrane separated and homogenized in 50 mM Tris buffer to prepare a protein sample. The protein sample was incubated together with ^125I motilin 25 pM and thereafter the radioactivity bound to the protein was measured. Specific binding was defined as the difference between the radioactivity in the case of adding a great excess amount of motilin (10^−7 M) and that in the case of no adding. The activity of the compound was expressed by IC50 (in nM), as the concentration sufficient to reduce the specific binding by 50%.

T1 sequence (G1T803 1-400): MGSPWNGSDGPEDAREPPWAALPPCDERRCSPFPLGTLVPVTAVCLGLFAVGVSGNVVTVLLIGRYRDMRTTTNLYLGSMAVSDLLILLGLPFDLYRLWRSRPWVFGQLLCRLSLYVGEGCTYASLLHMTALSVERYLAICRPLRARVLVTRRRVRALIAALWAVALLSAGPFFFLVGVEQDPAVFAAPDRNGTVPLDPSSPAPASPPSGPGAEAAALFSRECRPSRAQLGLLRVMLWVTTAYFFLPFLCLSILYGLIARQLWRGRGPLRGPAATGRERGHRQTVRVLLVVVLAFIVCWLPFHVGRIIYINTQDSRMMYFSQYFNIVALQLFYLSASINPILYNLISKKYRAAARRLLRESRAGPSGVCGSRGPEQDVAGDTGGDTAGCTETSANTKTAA

Row | IC50 (motilin receptor) [nM] | SMILES | Kb [1] [nM]
1 | 0.36 | CN(C(=O)[C@@H](N)Cc1ccc(F)cc1)[C@H](C(=O)N(C)[C@@H](Cc1ccc(O)c(C(C)(C)C)c1)C(N)=O)C1CCCCC1 [Example 151, Phe(4-F)-N-Me-Chg-N-Me-Tyr(3-tBu)-NH2] (H-[Phe(4-F)]-[NMeChg]-[NMeTyr(3-tBu)]-NH2) | 6.31
2 | 0.71 | CC(C)[C@@H](C(=O)N(C)[C@@H](Cc1ccc(O)c(C(C)(C)C)c1)C(N)=O)N(C)C(=O)[C@@H](N)Cc1ccc(Cl)cc1 [Example 2, Phe(4-Cl)-N-Me-Val-N-Me-Tyr(3-tBu)-NH2] (H-[Phe(4-Cl)]-[NMeV]-[NMeTyr(3-tBu)]-NH2) | 2
3 | 2.3 | CC(C)[C@@H](C(=O)N(C)C(Cc1ccc(O)c(C(C)(C)C)c1)C(N)=O)N(C)C(=O)C(N)Cc1ccc(C#N)cc1 (stereo partly shown) [Example 182, Phe(4-CN)-N-Me-Val-N-Me-Tyr(3-tBu)-NH2] (H-[ξPhe(4-CN)]-[NMeV]-[ξNMeTyr(3-tBu)]-NH2) | 3.16
4 | 4 | CCC[C@@H](C(=O)N(C)[C@@H](Cc1ccc(O)c(C(C)(C)C)c1)C(N)=O)N(C)C(=O)[C@@H](N)Cc1ccc(F)cc1 [Example 140, Phe(4-F)-N-Me-Nva-N-Me-Tyr(3-tBu)-NH2] (H-[Phe(4-F)]-[NMeNva]-[NMeTyr(3-tBu)]-NH2) | 6.31
5 | 2.8 | CN(C(=O)[C@@H](N)Cc1ccc(F)cc1)[C@H](C(=O)N(C)[C@@H](Cc1ccc(O)c(C(C)(C)C)c1)C(N)=O)C1CC1 [Example 165, Phe(4-F)-N-Me-Ala(β-c-Pr)-N-Me-Tyr(3-tBu)-NH2] (H-[Phe(4-F)]-[NMeGly(cPr)]-[NMeTyr(3-tBu)]-NH2) | 6.31
6 | 0.62 | CCC(C)[C@@H](C(=O)N(C)[C@@H](Cc1ccc(O)c(C(C)(C)C)c1)C(N)=O)N(C)C(=O)[C@@H](N)Cc1ccc(F)cc1 (stereo partly shown) [Example 142, Phe(4-F)-N-Me-Ile-N-Me-Tyr(3-tBu)-NH2] (H-[Phe(4-F)]-[NMeIle(3ξ)]-[NMeTyr(3-tBu)]-NH2) | 2.51
7 | 1.5 | CN[C@@H](Cc1ccc(F)cc1)C(=O)N(C)[C@H](C(=O)N(C)[C@@H](Cc1ccc(O)c(C(C)(C)C)c1)C(N)=O)C(C)C [Example 34, N-Me-Phe(4-F)-N-Me-Val-N-Me-Tyr(3-tBu)-NH2] (H-[NMePhe(4-F)]-[NMeV]-[NMeTyr(3-tBu)]-NH2) | 0.398
8 | 6.1 | CN(C(=O)[C@@H](N)Cc1ccc(F)cc1)[C@@H](Cc1ccc(F)cc1)C(=O)N(C)[C@@H](Cc1ccc(O)c(C(C)(C)C)c1)C(N)=O [Example 157, Phe(4-F)-N-Me-Phe(4-F)-N-Me-Tyr(3-tBu)-NH2] (H-[Phe(4-F)]-[NMePhe(4-F)]-[NMeTyr(3-tBu)]-NH2) | 7.94
9 | 1.8 | CN(C(=O)[C@@H](N)Cc1ccc(F)cc1)[C@H](C(=O)N(C)[C@@H](Cc1ccc(O)c(C(C)(C)C)c1)C(N)=O)c1ccccc1 [Example 166, Phe(4-F)-N-Me-Phg-N-Me-Tyr(3-tBu)-NH2] (H-[Phe(4-F)]-[NMePhg]-[NMeTyr(3-tBu)]-NH2) | 0.158

Second part, the compound before the results:

Row | SMILES | IC50 (motilin receptor) [nM] | Kb [1] [nM]
10 | Cc1cc(=O)[nH]c([C@H](Cc2ccc(O)c(C(C)(C)C)c2)NC(=O)[C@H](C(C)C)N(C)C(=O)[C@@H](N)Cc2ccc(F)cc2)n1 (single isomer, unassigned) [Example 19, 2-(1-(2-((2-amino-3-(4-fluorophenyl)propionyl)-N-methylamino)-3-methyl-butyrylamino)-2-(3-tert-butyl-4-hydroxyphenyl)ethyl)-6-methyl-4-pyrimidinone] | 2.2 | 2
11 | CCNC(=O)[C@H](Cc1ccc(O)c(C(C)(C)C)c1)N(CC)C(=O)[C@H](C(C)C)N(C)C(=O)[C@H](Cc1ccc(F)cc1)NCC [Example 109, N-Et-Phe(4-F)-N-Me-Val-N-Et-Tyr(3-tBu)-NHEt] | 0.17 | 2
12 | CC(C)[C@@H](C(=O)N(C)[C@@H](Cc1ccc(O)c(C(C)(C)C)c1)C(=O)N1CCN(CC(=O)O)CC1)N(C)C(=O)[C@@H](N)Cc1ccc(F)cc1 [Example 136, 2-[4-((2S)-2-{(2S)-2-[(2S)-2-amino-3-(4-fluorophenyl)-N-methylpropanolyamino)-3,N-dimethylbutanoylamino}-3-[3-(tert-butyl)-4-hydroxyphenyl]propanoyl)piperazinyl]acetic acid] | 6.8 | 25.1
13 | CCNC(=O)[C@H](Cc1ccc(O)c(C(C)(C)C)c1)N(C)C(=O)[C@H](C(C)C)N(C)C(=O)[C@H](Cc1ccc(F)cc1)NCC [Example 106, N-Et-Phe(4-F)-N-Me-Val-N-Me-Tyr(3-tBu)-NHEt] | 0.62 | 0.158
14 | CC(C)[C@@H](C(=O)N[C@H](CNS(C)(=O)=O)Cc1ccc(O)c(C(C)(C)C)c1)N(C)C(=O)[C@@H](N)Cc1ccc(F)cc1 [Example 14, N-[2-(3-tert-butyl-4-hydroxyphenyl)-1-(methanesulfonylaminomethyl)ethyl]-2-[N-(4-fluorophenylalaminoyl)methylamino]-3-methylbutanamide] | 0.7 | 0.501
15 | CNC(=O)[C@H](Cc1ccc(O)c(C(C)(C)C)c1)NC(=O)[C@H](C(C)C)N(C)C(=O)[C@H](Cc1ccc(F)cc1)NC [Example 32, N-Me-Phe(4-F)-N-Me-Val-Tyr(3-tBu)-NHMe] (H-[NMePhe(4-F)]-[NMeV]-[Tyr(3-tBu)]-NHMe) | 0.76 | 0.794
16 | CNC(=O)[C@H](Cc1ccc(O)c(C(C)(C)C)c1)N(C)C(=O)[C@H](C(C)C)N(C)C(=O)[C@H](Cc1ccc(F)cc1)NC [Example 37, N-Me-Phe(4-F)-N-Me-Val-N-Me-Tyr(3-tBu)-NHMe] (H-[NMePhe(4-F)]-[NMeV]-[NMeTyr(3-tBu)]-NHMe) | 0.6 | 1.58
17 | CC(C)[C@@H](C(=O)N(C)[C@@H](Cc1ccc(O)c(C(C)(C)C)c1)C(N)=O)N(C)C(=O)[C@@H](N)Cc1ccc(O)cc1F [Example 26, Tyr(2-F)-N-Me-Val-N-Me-Tyr(3-tBu)-NH2] | 7.3 | 10
18 | CC(C)[C@@H](C(=O)N[C@@H](Cc1ccc(O)c(C(C)(C)C)c1)C(=O)Nc1ccccn1)N(C)C(=O)[C@@H](N)Cc1ccc(F)cc1 [Example 8, 2-((2-amino-3-(4-fluorophenyl)propionyl)-N-methylamino)-3-methylbutyric acid 2-(3-tert-butyl-4-hydroxyphenyl)-1-(2-pyridylcarbamoyl)ethylamide] | 0.35 | 0.316
19 | CCNC(=O)[C@H](Cc1ccc(O)c(C(C)(C)C)c1)NC(=O)[C@H](C(C)C)N(C)C(=O)[C@H](Cc1ccc(F)cc1)NC [Example 102, N-Me-Phe(4-F)-N-Me-Val-Tyr(3-tBu)-NHEt] (H-[NMePhe(4-F)]-[NMeV]-[Tyr(3-tBu)]-NHEt) | 0.31 | 1
20 | CC(C)[C@@H](C(=O)N[C@@H](Cc1ccc(O)c(C(C)(C)C)c1)CS(C)(=O)=O)N(C)C(=O)[C@@H](N)Cc1ccc(F)cc1 [Example 16, 2-((2-amino-3-(4-fluorophenyl)propionyl)-N-methylamino)-3-methylbutyric acid 2-(3-t-butyl-4-hydroxyphenyl)-1-methanesulfonylmethylethylamide] | 0.41 | 0.398
21 | CC(C)[C@@H](C(=O)N(C)[C@@H](Cc1ccc(O)c(C(C)(C)C)c1)C(=O)NC1CC1)N(C)C(=O)[C@@H](N)Cc1ccc(F)cc1 [Example 121, Phe(4-F)-N-Me-Val-N-Me-Tyr(3-tBu)-NH-c-Pr] | 0.41 | 1.26
22 | CCN[C@@H](Cc1ccc(F)cc1)C(=O)N(C)[C@H](C(=O)N(CC)[C@@H](Cc1ccc(O)c(C(C)(C)C)c1)C(=O)NCO)C(C)C [Example 129, N-Et-Phe(4-F)-N-Me-Val-N-Et-Tyr(3-tBu)-NHCH2OH] | 4 | 3.16
23 | CCNC(=O)[C@H](Cc1ccc(O)c(C(C)(C)C)c1)NC(=O)[C@H](C(C)C)N(C)C(=O)[C@H](Cc1ccc(F)cc1)NCC [Example 103, N-Et-Phe(4-F)-N-Me-Val-Tyr(3-tBu)-NHEt] | 0.86 | 1.26
24 | CC(C)[C@@H](C(=O)N[C@@H](Cc1ccc(O)c(C(C)(C)C)c1)c1nccs1)N(C)C(=O)[C@@H](N)Cc1ccc(F)cc1 (single isomer, unassigned) [Example 23, 2-((2-amino-3-(4-fluorophenyl)propionyl)-N-methylamino)-3-methylbutyric acid 2-(3-tert-butyl-4-hydroxyphenyl)-1-(thiazol-2-yl)ethylamide] | 0.67 | 0.501
25 | CCN(C(=O)[C@H](C(C)C)N(C)C(=O)[C@@H](N)Cc1ccc(F)cc1)[C@@H](Cc1ccc(O)c(C(C)(C)C)c1)C(=O)NC [Example 42, Phe(4-F)-N-Me-Val-N-Et-Tyr(3-tBu)-NHMe] | 1.2 | 5.01
26 | CCN[C@@H](Cc1ccc(F)cc1)C(=O)N(C)[C@H](C(=O)N[C@@H](Cc1ccc(O)c(C(C)(C)C)c1)C(=O)NCO)C(C)C [Example 124, N-Et-Phe(4-F)-N-Me-Val-Tyr(3-tBu)-NHCH2OH] | 0.98 | 0.794

Reference: US7553969B1, “Substituted phenethylamine derivatives” (Chugai Seiyaku Kabushiki Kaisha, priority 1999, dated 2009)
